Laboratory results: patent US10405547B2, “Substituted cyclic amides as herbicides” (FMC Corporation, priority 2015, dated 2019)

Experiments:
Assay type in all cases: in vivo
[1] = tested on: foxtail, giant (Setaria faberii); assay: Test A preemergence, giant foxtail; settings: 0 to 100 scale (0 no effect, 100 complete control)
Outline: (§1)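 Visual injury scores (0 no effect to 100 complete control) taken about 10 days after treatment, relative to untreated plants. Treatments were directed soil spray at planting for preemergence, or foliar application to one- to two-leaf plants (2-10 cm) for postemergence, with surfactant-containing formulations in loam–sand pots.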

corn (Zea mays) = assay: Test A postemergence, corn; settings: visual injury, 0 to 100 scale (0 no effect, 100 complete control), approximately 10 days
Outline: as §1

[2] = tested on: barnyardgrass (Echinochloa crus-galli); assay: Test A postemergence, barnyardgrass; settings: visual injury, 0 to 100 scale (0 no effect, 100 complete control), approximately 10 days
Outline: as §1

[3] = tested on: ryegrass, Italian (Lolium multiflorum); assay: Test A preemergence, Italian ryegrass; settings: 0 to 100 scale (0 no effect, 100 complete control)
Outline: as §1

[4] = tested on: galium (catchweed bedstraw, Galium aparine); assay: Test A postemergence, galium; settings: visual injury, 0 to 100 scale (0 no effect, 100 complete control), approximately 10 days
Outline: as §1

[5] = tested on: ryegrass, Italian (Lolium multiflorum); assay: Test A postemergence, Italian ryegrass; settings: visual injury, 0 to 100 scale (0 no effect, 100 complete control), approximately 10 days
Outline: as §1

[6] = tested on: ragweed (common ragweed, Ambrosia elatior); assay: Test A postemergence, ragweed; settings: visual injury, 0 to 100 scale (0 no effect, 100 complete control), approximately 10 days
Outline: as §1

[7] = tested on: barnyardgrass (Echinochloa crus-galli); assay: Test A preemergence, barnyardgrass; settings: 0 to 100 scale (0 no effect, 100 complete control)
Outline: as §1

[8] = tested on: pigweed (Amaranthus retroflexus); assay: Test A preemergence, pigweed; settings: 0 to 100 scale (0 no effect, 100 complete control)
Outline: as §1

[9] = tested on: pigweed (Amaranthus retroflexus); assay: Test A postemergence, pigweed; settings: visual injury, 0 to 100 scale (0 no effect, 100 complete control), approximately 10 days
Outline: as §1

[10] = tested on: wheat (Triticum aestivum); assay: Test A postemergence, wheat; settings: visual injury, 0 to 100 scale (0 no effect, 100 complete control), approximately 10 days
Outline: as §1

[11] = tested on: foxtail, giant (Setaria faberii); assay: Test A postemergence, giant foxtail; settings: visual injury, 0 to 100 scale (0 no effect, 100 complete control), approximately 10 days
Outline: as §1

[12] = tested on: blackgrass (Alopecurus myosuroides); assay: Test A postemergence, blackgrass; settings: visual injury, 0 to 100 scale (0 no effect, 100 complete control), approximately 10 days
Outline: as §1

[13] = tested on: ragweed (common ragweed, Ambrosia elatior); assay: Test A preemergence, ragweed; settings: 0 to 100 scale (0 no effect, 100 complete control)
Outline: as §1

kochia (Kochia scoparia) [14] = assay: Test A preemergence, kochia; settings: 0 to 100 scale (0 no effect, 100 complete control)
Outline: as §1

kochia (Kochia scoparia) [15] = assay: Test A postemergence, kochia; settings: visual injury, 0 to 100 scale (0 no effect, 100 complete control), approximately 10 days
Outline: as §1

| SMILES | Plant response rating, Foxtail, Giant ([1]; 125 g ai/ha) | Plant response rating, Foxtail, Giant ([1]; 500 g ai/ha) | Plant response rating, Corn (corn (Zea mays); 125 g ai/ha) | Plant response rating, Corn (corn (Zea mays); 500 g ai/ha) | Plant response rating, Barnyardgrass ([2]; 125 g ai/ha) | Plant response rating, Barnyardgrass ([2]; 500 g ai/ha) | Plant response rating, Ryegrass, Italian ([3]; 125 g ai/ha) | Plant response rating, Ryegrass, Italian ([3]; 500 g ai/ha) | Plant response rating, Galium ([4]; 125 g ai/ha) | Plant response rating, Galium ([4]; 500 g ai/ha) | Plant response rating, Ryegrass, Italian ([5]; 125 g ai/ha) | Plant response rating, Ryegrass, Italian ([5]; 500 g ai/ha) | Plant response rating, Ragweed ([6]; 125 g ai/ha) | Plant response rating, Ragweed ([6]; 500 g ai/ha) | Plant response rating, Barnyardgrass ([7]; 125 g ai/ha) | Plant response rating, Barnyardgrass ([7]; 500 g ai/ha) | Plant response rating, Pigweed ([8]; 125 g ai/ha) | Plant response rating, Pigweed ([8]; 500 g ai/ha) | Plant response rating, Pigweed ([9]; 125 g ai/ha) | Plant response rating, Pigweed ([9]; 500 g ai/ha) | further results |
| --- | --- | --- | --- | --- | --- | --- | --- | --- | --- | --- | --- | --- | --- | --- | --- | --- | --- | --- | --- | --- | --- |
| O=C1NCC(c2cccc(COc3ccccc3)c2)C1C(=O)Nc1ccccc1Cl (centres unmarked) [Compound 18] | 0 | 20 | 0 | 0 | 0 | 20 | 0 | 0 | 0 | 0 | 0 | 0 | 0 | 0 | 0 | 0 | 0 | 0 | 0 | 0 | Plant response rating, Wheat ([10]; 125 g ai/ha): 0; Plant response rating, Wheat ([10]; 500 g ai/ha): 0; Plant response rating, Foxtail, Giant ([11]; 125 g ai/ha): 0; Plant response rating, Foxtail, Giant ([11]; 500 g ai/ha): 0; Plant response rating, Blackgrass ([12]; 125 g ai/ha): 0; Plant response rating, Blackgrass ([12]; 500 g ai/ha): 0; Plant response rating, Ragweed ([13]; 125 g ai/ha): 0; Plant response rating, Ragweed ([13]; 500 g ai/ha): 0; Plant response rating, Kochia (kochia (Kochia scoparia) [14]; 125 g ai/ha): 0; Plant response rating, Kochia (kochia (Kochia scoparia) [14]; 500 g ai/ha): 0; Plant response rating, Kochia (kochia (Kochia scoparia) [15]; 125 g ai/ha): 0; Plant response rating, Kochia (kochia (Kochia scoparia) [15]; 500 g ai/ha): 0 |
| O=C1NCC(c2cccc(Cn3cccn3)c2)C1C(=O)Nc1ccccc1F (centres unmarked) [Compound 27] | 20 | 30 | 0 | 0 | 40 | 70 | 0 | 0 | 0 | 0 | 0 | 0 | 0 | 0 | 0 | 20 | 0 | 0 | 0 | 0 | Plant response rating, Wheat ([10]; 125 g ai/ha): 0; Plant response rating, Wheat ([10]; 500 g ai/ha): 0; Plant response rating, Foxtail, Giant ([11]; 125 g ai/ha): 40; Plant response rating, Foxtail, Giant ([11]; 500 g ai/ha): 50; Plant response rating, Blackgrass ([12]; 125 g ai/ha): 0; Plant response rating, Blackgrass ([12]; 500 g ai/ha): 0; Plant response rating, Ragweed ([13]; 125 g ai/ha): 0; Plant response rating, Ragweed ([13]; 500 g ai/ha): 0; Plant response rating, Kochia (kochia (Kochia scoparia) [14]; 125 g ai/ha): 0; Plant response rating, Kochia (kochia (Kochia scoparia) [14]; 500 g ai/ha): 0; Plant response rating, Kochia (kochia (Kochia scoparia) [15]; 125 g ai/ha): 0; Plant response rating, Kochia (kochia (Kochia scoparia) [15]; 500 g ai/ha): 0 |
| O=C1NCC(c2cccc(Cn3cccn3)c2)C1C(=O)Nc1ccccc1Cl (centres unmarked) [Compound 29] | 0 | 40 | 0 | 0 | 0 | 20 | 0 | 0 | 0 | 0 | 0 | 0 | 0 | 0 | 0 | 40 | 0 | 0 | 0 | 0 | Plant response rating, Wheat ([10]; 125 g ai/ha): 0; Plant response rating, Wheat ([10]; 500 g ai/ha): 0; Plant response rating, Foxtail, Giant ([11]; 125 g ai/ha): 0; Plant response rating, Foxtail, Giant ([11]; 500 g ai/ha): 20; Plant response rating, Blackgrass ([12]; 125 g ai/ha): 0; Plant response rating, Blackgrass ([12]; 500 g ai/ha): 0; Plant response rating, Ragweed ([13]; 125 g ai/ha): 0; Plant response rating, Ragweed ([13]; 500 g ai/ha): 0; Plant response rating, Kochia (kochia (Kochia scoparia) [14]; 125 g ai/ha): 0; Plant response rating, Kochia (kochia (Kochia scoparia) [14]; 500 g ai/ha): 0; Plant response rating, Kochia (kochia (Kochia scoparia) [15]; 125 g ai/ha): 0; Plant response rating, Kochia (kochia (Kochia scoparia) [15]; 500 g ai/ha): 0 |
| O=C1NCC(c2cccc(Oc3ncc(Cl)cn3)c2)C1C(=O)Nc1cccc(F)c1F (centres unmarked) [Compound 56] | 0 | 0 | 0 | 0 | 0 | 30 | 0 | 0 | 0 | 20 | 0 | 0 | 0 | 0 | 30 | 70 | 0 | 0 | 0 | 0 | Plant response rating, Wheat ([10]; 125 g ai/ha): 0; Plant response rating, Wheat ([10]; 500 g ai/ha): 0; Plant response rating, Foxtail, Giant ([11]; 125 g ai/ha): 0; Plant response rating, Foxtail, Giant ([11]; 500 g ai/ha): 60; Plant response rating, Blackgrass ([12]; 125 g ai/ha): 0; Plant response rating, Blackgrass ([12]; 500 g ai/ha): 0; Plant response rating, Ragweed ([13]; 125 g ai/ha): 0; Plant response rating, Ragweed ([13]; 500 g ai/ha): 0; Plant response rating, Kochia (kochia (Kochia scoparia) [14]; 125 g ai/ha): 0; Plant response rating, Kochia (kochia (Kochia scoparia) [14]; 500 g ai/ha): 0; Plant response rating, Kochia (kochia (Kochia scoparia) [15]; 125 g ai/ha): 0; Plant response rating, Kochia (kochia (Kochia scoparia) [15]; 500 g ai/ha): 0 |
